# Values joined by “and” are separate entries in the source; they are usually repeats but may differ in a detail not shown here. Equal entries are not always repeated.
# System: 653999-131-R-J2-PDC complex spheroid viability
# Assay: Anticancer human tumor 653999-131-R-J2-PDC patient-derived lung adenocarcinoma cell line growth inhibition
# Conditions: for viability, T/C: stronger effect = lower value
# Text: Multicellular complex tumor spheroid response to LSD1 Inhibitor Iadademstat in combination with a variety of drugs and investigational agents in selected tumor cell lines
# The current study was undertaken to assess response to LSD1 inhibitors in combination with standard-of-care drugs and investigational agents in solid tumor complex spheroid models as well as in the K-562 leukemia. Complex spheroids include a stromal component modeled by human endothelial cells (HUVEC) and fibroblasts modeled by human mesenchymal stem cells (MSCs). The concentration ranges selected for each drug and investigational agent were based upon clinically achievable concentrations if the clinical Cmax of the agent was known.
# Compounds. The drugs and investigational agents used in this study are listed on Table 1. All of the agents used, including staurosporine (NSC755774) and gemcitabine (NSC613327), were obtained from the Developmental Therapeutics Program, NCI. FDA-approved anticancer drugs are available from the NCI at http://dtp.nci.nih.gov/branches/dscb/oncology_drugset_explanation.html. Drugs and investigational agents were >95% pure by proton nuclear magnetic resonance (NMR) and liquid chromatography/mass spectrometry (LC/MS). Stock solutions were prepared at 400x in DMSO, stored at -70 degrees C, and diluted in fresh medium prior to their use. The final concentration of DMSO in cell culture wells never exceeded 0.25% (v/v). The FDA-approved anticancer drug set is available from the Developmental Therapeutics Program at https://dtp.cancer.gov/organization/dscb/obtaining/available_plates.htm. All drugs and investigational agents were tested over a range starting from a high concentration at or near the clinical Cmax and decreasing in half-log increments. If the clinical Cmax for an agent had not been determined, the highest concentration tested was 10 microM.
# Cell Lines. The patient-derived cancer cell (PDC) lines: 292921-168-R-J2-PDC, K24384-001-R-PDC, and 521955-158-R2-J5-PDC pancreatic carcinomas, 556581-035-R-J1 ovarian carcinoma, 324938-238-R-J1-PDC, 855422-203-R-J1-PDC and 883617-216-R-J1-PDC urothelial bladder carcinomas, 743489-274-T-PDC renal cell carcinoma, 138582-R-J1 Merkel cell tumor, K60290-347-R-J1 and K57222-313-R-J1-PDC glioblastomas, 653999-131-R-J2-PDC, LG0703-F948-PDC, and 349418-098-R-PDC non-small cell lung carcinomas, 885512-296-R-J2-PDC, 171881-019-R-J1-PDC breast carcinomas and 186277-243-T-J2-PDC and 233499-124-R-J2-PDC colon carcinomas were obtained from the NCI Patient-Derived Models Repository (PDMR, https://pdmr.cancer.gov). The established cell lines NCI/ADR-RES (RRID:CVCL_14520 and OVCAR-5 (RRID:CVCL_1628) ovarian carcinomas, 786-O (RRID:CVCL_1051) and A498 (RRID:CVCL_A498) renal cell carcinoma, NCI-H211 (ATCC, cat. CRL-5824; RRID:CVCL_1529), NCI-H196 (ATCC, cat. CRL-5823, RRID:CVCL_1509), SW 1271 (ATCC, cat. CRL-2177, RRID:CVCL_1716) and NCI-H1876 (ATCC, cat. CRL-5902, RRID:CVCL_1503) small cell lung carcinomas, MDA-MB-231 (RRID:CVCL_0062) and MDA-MB-468 (RRID:CVCL_0419)breast carcinomas (10-12). Pooled donor human umbilical vein endothelial cells (HUVEC, Lonza, cat. CC-2519) and human mesenchymal stem cells (hMSC, Lonza, cat. PT-2501) were purchased from Lonza (Walkersville, MD).
# Cell Culture. All cells were maintained in an incubator at 37 degrees C and 5% CO2 with 95% humidity. The PDC lines were cultured according to standard operating procedures established by the NCI PDMR (https://pdmr.cancer.gov). Briefly all PDCs were thawed and cultured in Matrigel-coated flasks prepared with a working solution of 1X Ham's F-12 nutrient mix, without supplementation (Invitrogen, Waltham, MA, cat. 11765054), 100 U/mL penicillin-streptomycin (Invitrogen, cat. 15140122), and 2.5% Matrigel (Corning Inc., Corning, NY, cat. 354248) for the first three passages. […]
# 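Further: spheroids exposed to agents for seven days before readout.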
IC50 (curve of compound),Compound,"viability, T/C (compound 0.00316 µM)","viability, T/C (compound 0.01 µM)","viability, T/C (compound 0.0316 µM)","viability, T/C (compound 0.1 µM)","viability, T/C (compound 0.316 µM)","viability, T/C (compound 1 µM)","viability, T/C (compound 0.00949 µM)","viability, T/C (compound 0.03 µM)","viability, T/C (compound 0.0949 µM)","viability, T/C (compound 0.3 µM)",further results
2.17 nM and 0.852 nM,CC(C)CC(NC(=O)C(Cc1ccccc1)NC(=O)c1cnccn1)B(O)O (centres undefined),23.9% and 13.2%,1.83% and 5.29%,2.67% and 1.3%,0.76% and 1.16%,–,–,–,–,–,–,"viability, T/C (compound 0.000316 µM): 114% and 119%; viability, T/C (compound 0.001 µM): 103% and 38.1%"
13.4 nM and 19.9 nM,CC(C)CC(NC(=O)CNC(=O)c1cc(Cl)ccc1Cl)B1OC(=O)CC(CC(=O)O)(C(=O)O)O1 (centres undefined),92.6% and 107%,56.9% and 74.5%,25.3% and 34.1%,5.14% and 18.5%,–,–,–,–,–,–,"viability, T/C (compound 0.000316 µM): 101% and 110%; viability, T/C (compound 0.001 µM): 108% and 115%"
> 10000 nM,CC(C)c1c(-c2ccccc2)nc2c(C#N)c[nH]n2c1=O,–,–,98.4% and 88.9%,107% and 94.6%,108% and 93.6%,116% and 98.2%,–,–,–,–,"viability, T/C (compound 3.16 µM): 109% and 88.9%; viability, T/C (compound 10 µM): 94.7% and 88.9%"
> 10000 nM and 6320 nM,CC1(C)CCC(CN2CCN(c3ccc(C(=O)NS(=O)(=O)c4ccc(NCC5CCOCC5)c([N+](=O)[O-])c4)c(Oc4cnc5[nH]ccc5c4)c3)CC2)=C(c2ccc(Cl)cc2)C1,–,–,92.8% and 101%,106% and 102%,97% and 104%,83.8% and 97.2%,–,–,–,–,"viability, T/C (compound 3.16 µM): 92.2% and 85.6%; viability, T/C (compound 10 µM): 60.5% and 26.7%"
18.8 nM and 18.2 nM,CC1COCCN1c1cc(-c2ccnn2C)c2ccnc(-c3ccn[nH]3)c2n1 (centres undefined),81.7% and 58.4%,66.4% and 56.5%,36.3% and 41.4%,31.9% and 35.9%,29.8% and 45.5%,30.5% and 53.4%,–,–,–,–,–
1810 nM and > 10000 nM,CC1COCCN1c1cc(C2(S(C)(=N)=O)CC2)nc(-c2ccnc3[nH]ccc23)n1 (centres undefined),–,–,107% and 106%,85.1% and 117%,79.9% and 107%,57.8% and 84.8%,–,–,–,–,"viability, T/C (compound 3.16 µM): 38.3% and 58.8%; viability, T/C (compound 10 µM): 37.8% and 56.7%"
> 3000 nM,CCN(c1cc(-c2ccc(CN3CCOCC3)cc2)cc(C(=O)NCc2c(C)cc(C)[nH]c2=O)c1C)C1CCOCC1,–,–,–,–,–,–,91.4% and 104%,96.6% and 104%,103%,97.3% and 101%,"viability, T/C (compound 0.949 µM): 91.9% and 89.5%; viability, T/C (compound 3 µM): 92.6% and 92%"
7.34 nM and 15.4 nM,CC[C@@]1(O)C(=O)OCc2c1cc1n(c2=O)Cc2cc3c(CN(C)C)c(O)ccc3nc2-1,66% and 83.8%,41.8% and 55.4%,34.3% and 41.5%,22.4% and 29.9%,–,–,–,–,–,–,"viability, T/C (compound 0.000316 µM): 108% and 99%; viability, T/C (compound 0.001 µM): 88.5% and 100%"
< 0.949 nM,CCc1c2c(nc3ccc(O)cc13)-c1cc3c(c(=O)n1C2)COC(=O)[C@]3(O)CC,–,–,–,–,–,–,11.9% and 12.5%,7.76% and 6.48%,5.86% and 7.35%,5.31% and 11.3%,"viability, T/C (compound 0.000949 µM): 25.8% and 33.6%; viability, T/C (compound 0.003 µM): 18.4% and 20.9%"
230 nM and 199 nM,COc1cc(C2c3cc4c(cc3C(OC3OC5COC(C)OC5C(O)C3O)C3COC(=O)C23)OCO4)cc(OC)c1O (centres undefined),–,–,–,–,–,–,80.5% and 89.5%,76.5% and 74.9%,64.3% and 57.3%,42.8% and 45.1%,"viability, T/C (compound 0.949 µM): 37.4% and 36.7%; viability, T/C (compound 3 µM): 25.3% and 27.8%"
> 1000 nM,COc1cc(Nc2ncc3c(n2)-c2ccc(Cl)cc2C(c2c(F)cccc2OC)=NC3)ccc1C(=O)O,96.9% and 78.1%,90.6% and 74%,68.8% and 68.2%,70% and 73.6%,73.4% and 78%,68.2% and 64.2%,–,–,–,–,–
2190 nM and 2880 nM,COc1ccc([C@@H](O)c2cc(-c3ncnc4cc(N5CCOCC5)ccc34)c(F)cc2Cl)nn1,–,–,101% and 104%,93.2% and 96.7%,77.3% and 87.9%,61.9% and 64.3%,–,–,–,–,"viability, T/C (compound 3.16 µM): 44.9% and 50.9%; viability, T/C (compound 10 µM): 29.5% and 30.6%"
> 100 nM,Cn1ncnc1C1c2n[nH]c(=O)c3cc(F)cc(c23)NC1c1ccc(F)cc1 (centres undefined),96% and 98.3%,99.2% and 101%,89.6% and 93.2%,94% and 91.3%,–,–,–,–,–,–,"viability, T/C (compound 0.000316 µM): 97.3% and 103%; viability, T/C (compound 0.001 µM): 92.2% and 108%"
–,NC1CC1c1ccc(-c2cccc(O)c2)cc1 (centres undefined),–,–,–,–,–,–,–,–,–,–,"IC50 (compound alone, run of 02/01/2022): > 10000 nM"
–,NC1CCC(NC2CC2c2ccccc2)CC1 (centres undefined),–,–,–,–,85.8% and 90%,86.8% [middle of 25 runs],–,–,–,–,"IC50 (compound alone, run of 01/18/2022): > 10000 nM"
> 3000 nM,NS(=O)(=O)OCC1CC(n2ccc3c(NC4CCc5ccccc54)ncnc32)CC1O (centres undefined),–,–,–,–,–,–,115% and 114%,98.1% and 121%,91.9% and 121%,99.7% and 70.9%,"viability, T/C (compound 0.949 µM): 54.7% and 62.8%; viability, T/C (compound 3 µM): 55.3% and 60%"
402 nM and 414 nM,Nc1ccccc1NC(=O)c1ccc(CNC(=O)OCc2cccnc2)cc1,–,–,–,–,–,–,100% and 112%,73.8% and 105%,75% and 76.2%,56.3% and 69.2%,"viability, T/C (compound 0.949 µM): 38.6% and 20.9%; viability, T/C (compound 3 µM): 11.8% and 1.21%"
–,Nc1ccn(C2OC(CO)C(O)C2(F)F)c(=O)n1 (centres undefined),–,–,–,–,–,–,49% and 73.2%,38.4% and 57.3%,37.5% and 50.2%,34.7% and 50.1%,"viability, T/C (compound 0.000949 µM): 64.7% and 96.4%; viability, T/C (compound 0.003 µM): 56.8% and 94.6%"
> 1000 nM,Nc1ncn(C2CC(O)C(CO)O2)c(=O)n1 (centres undefined),89% and 109%,105% and 103%,83.9% and 95.3%,78.7% and 96.2%,80.5% and 91.1%,79.3% and 85.2%,–,–,–,–,–
> 300 nM,Nc1ncn(C2CC(O)C(CO)S2)c(=O)n1 (centres undefined),–,–,–,–,–,–,103% and 100%,76.5% and 87.5%,76.6% and 87.2%,62.8% and 79.2%,"viability, T/C (compound 0.000949 µM): 96% and 102%; viability, T/C (compound 0.003 µM): 96.2% and 104%"
401 nM and > 3000 nM,O=C(C=Cc1cccc(S(=O)(=O)Nc2ccccc2)c1)NO,–,–,–,–,–,–,87.5% and 110%,96.6% and 99.4%,75.9% and 90.7%,54.9%,"viability, T/C (compound 0.949 µM): 30.9% and 11.4%"
16.9 nM and 76.1 nM,O=C(C=Cn1cnc(-c2cc(C(F)(F)F)cc(C(F)(F)F)c2)n1)NNc1cnccn1,63.9% and 63.1%,51.8% and 58%,43.4% and 58.5%,40.6% and 47.5%,31.4% and 38.6%,21.8% and 36.8%,–,–,–,–,–
> 10000 nM,O=C(c1cc(Cc2n[nH]c(=O)c3ccccc23)ccc1F)N1CCN(C(=O)C2CC2)CC1,–,–,105% and 108%,103% and 108%,94.7% and 105%,92.7% and 102%,–,–,–,–,"viability, T/C (compound 3.16 µM): 79% and 91.8%; viability, T/C (compound 10 µM): 68.4% and 69.3%"

# — PubChem BioAssay AID1918939 (Molecular Pharmacology Branch, DTP, NCI, 2023)
